Data on one compound can be found in publication PMC6337631, “Effective Tetradentate Compound Complexes against Leishmania spp. that Act on Critical Enzymatic Pathways of These Parasites” (Molecules, 2018).

Structures are written as SMILES. A value given as a limit tells only on which side of the number the result lay.

The term IC50 denotes the concentration that inhibits the measured activity by half.

Test [1] relates to L. donovani promastigotes. The test can be described thus: Metabolite excretion by 1H-NMR, L. donovani. The settings on record: IC25 concentration, 72 h, vs untreated. The test is classed as cell-based, Leishmania donovani. The procedure:
Trypanosomatids catabolizes glucose at a high rate, excreting into the medium partly oxidized end products such as acetate, succinate, L-alanine or L-lactate.
Cultures of L. donovani, L. infantum and L. braziliensis promastigotes were seeded in culture flaks at 5 × 10^5 cells/mL, and after the addition of the compounds at IC25 concentrations at 28 °C. Control cultures were also included. After 72 h of incubation, parasites were centrifuged at 400 × g for 10 min, and supernatants were collected in order to determine the excreted metabolites by ^1H-NMR. Chemical shifts were expressed in parts per million (ppm) using sodium 2,2-dimethyl-2-silapentane-5-sulphonate as the reference signal. The One-dimensional ^1H-NMR spectra were acquired with a VARIAN DIRECT DRIVE 400 MHz Bruker spectrometer (Rheinstetten, Germany) with an AutoX probe using D2O as solvent. The chemical shifts used to identify the respective metabolites were consistent with those described previously by some of the authors. The spectral region of 1.0–5.5 ppm was bucketed into a frequency window of 0.1 ppm. The peak (2.6 ppm) corresponding to DMSO was removed before binning, and the regions corresponding to water (4.5–5.5 ppm) and glucose (3.4–3.8 ppm) were excluded during binning to avoid artefacts due to pre-saturation. The aromatic region was excluded because the signal to noise ratio in this region was poorer in comparison to the aliphatic region. The resulting integrals were normalised to the working region (1.0–3.4) ppm of the spectrum to correct for inter-sample differences in dilution. The binning and normalisations were achieved using Mestrenova 9.0 software (Santiago de Compostela, Spain). The matrix obtained in Mestrenova was imported into Microsoft Excel (Redmond, WA, USA) for further data analyses.

The test system of test [2] is Leishmania braziliensis promastigote forms. The test can be described thus: Promastigote test (extracellular forms), L. braziliensis. Conditions: Leishmania braziliensis; 72 h; 100 µM to 1 µM; mean ± SD. The test is classed as cell-based. On the procedure: (§1) Promastigote forms of three different Leishmania spp., L. donovani (MHOM/PE/84/LC26), L. infantum (MCAN/ES/2001/UCM-10) and L. braziliensis (MHOM/BR/1975/M2904), were cultured in vitro in Medium Trypanosomes Liquid (MTL) supplemented with 10% inactivated foetal calf serum (FCS) in an air atmosphere at 28 °C, in Roux flasks (Corning, Manassas, VA, USA) with a surface area of 75 cm^2, according to [33].
(§2) The compounds and the reference drug Glu were dissolved in DMSO (Panreac, Barcelona, Spain) and tested from 100 µM to 1 µM with 0.1% (v/v) DMSO final concentration in plates. Therefore, controls were prepared including 0.1% (v/v) of this component, as previously described.
(§3) Promastigote forms were collected in the exponential growth phase and seeded at 1 × 10^5 parasites/mL in 24-well microplates (Nunc, Naperville, IL, USA), after adding each compound at concentrations from 100 µM to 1 µM and cultured in 500 μL/well volumes at 28 °C. After 72 h incubation, the leishmanicidal activity was assessed using a Neubauer haemocytometric chamber in comparison with the control cultures. […] Each drug concentration was tested in triplicate in four separate determinations.

Test [3] has as its system Leishmania braziliensis amastigote forms. The test can be described thus: Amastigote test (intracellular forms in J774.2 macrophages), L. braziliensis. The test is classed as cell-based. Conditions: Leishmania braziliensis, 72 h, mean ± SD. On the procedure:
as §1, §2
J774.2 macrophages were grown and seeded at a density of 1 × 10^4 cells/well in 24-well microplates (Nunc) with rounded coverslips on the bottom and cultured for 48 h in humidified 95% air, 5% CO2 atmosphere at 37 °C in Minimal Essential Medium (MEM) with 2 mM glutamine and 20% (v/v) inactivated FCS. Adherent macrophages were infected with metacyclic promastigotes in the stationary growth phase of L. donovani, L. infantum and L. braziliensis at a multiplicity of infection (MOI) ratio of 1:10 and maintained for 24 h. Non-phagocytosed parasites were removed by washing, and after addition of the testing compounds at concentrations from 100 µM to 1 µM, cultured in 500 μL/well volumes. Control cultures were also included. After 72 h incubation, leishmanicidal activity was assessed based on the number of amastigotes in treated and untreated cultures in methanol-fixed and Giemsa-stained preparations by analyzing 500 host cells distributed in randomly chosen microscopic fields. The leishmanicidal effect was calculated as described to determine the leishmanicidal activity in the promastigote forms. Each drug concentration was tested in triplicate in four separate determinations.

Another test addresses T1, human CuZn-SOD (Homo sapiens, UniProt P00441).
T1 construct: purchased Sigma Chemical Co. (St. Louis, MO, USA)
As to the kind of experiment: SOD inhibition assay, human CuZn-SOD. The test is classed as biochemical. Conditions: assayed 100 µM to 0.1 µM; non-linear regression. On the procedure: The previous extraordinary results prompted us to evaluate the inhibitory effect of 3, 5–8 and 10 on the SOD activity. […]
Parasite cells were collected in the exponential growth phase by centrifugation (400g for 10 min). The pellet obtained after centrifugation was lysated by sonication, processed according to [38] and obtained the homogenate fraction which contained the parasite Fe-SOD. The protein content was quantified using the Sigma Bradford test, which uses BSA as a standard (no trace ability was certified for the BSA standard). Superoxide dismutase activities were determined using a method previously described, which measures the reduction in nitrobluetetrazolium (NBT) by superoxide ions. Human CuZn-SOD. Substrates used in these assays were obtained from Sigma Chemical Co. (St. Louis, MO, USA). Resulting data were analysed using the Newman−Keuls test.

Test [4] relates to Leishmania donovani infection of J774.2 macrophages. The test can be described thus: Infectivity assay, L. donovani. The test is classed as cell-based. The settings on record: IC25 concentration. On the procedure:
After the initial in vitro studies we were interested in finding out if the six most leishmanicidal compounds could also prevent the infection of host cells. For this reason, we conducted an assay in which the J774.2 macrophages were exposed to the metacyclic promastigotes and the compound at IC25 concentration at the same time. The propagation of the parasitic infection was determined by measuring the infection rate and the average number of amastigotes per macrophage cell present during the 10-day treatment period. In addition, the endocytic (short-time of infection) and infection (long-time of infection) indexes were calculated.
Adherent macrophages were grown, seeded and infected with metacyclic promastigotes as mentioned above. The compounds at IC25 concentrations (calculated using linear regression analysis from the Kc values of the concentrations employed) were added immediately after infection and incubation was performed for 12 h at 37 °C in humidified 95% air, 5% CO2 atmosphere. in humidified 95% air, 5% CO2 atmosphere at 37 °C Non-phagocytosed parasites and drugs were removed by washing, and then the infected cultures were grown for 10 days, adding fresh culture medium every 48 h, according to [35]. Amastigotes per macrophage count was determined in methanol-fixed and Giemsa-stained preparations as mentioned above every 48 h. The infection rate (defined as the percentage of infected cells), the average number of amastigotes per macrophage, and the endocytic and infection indexes (calculated by multiplying the infection rate by the average number of amastigotes per macrophage) were determined. Each drug concentration was tested in triplicate in four separate determinations.

Test [5] deals with Leishmania donovani promastigote forms. The test can be described thus: Promastigote test (extracellular forms), L. donovani. The test is classed as cell-based. Conditions: Leishmania donovani; 72 h; 100 µM to 1 µM; mean ± SD. On the procedure:
as §1, §2, §3

The mark [6] stands for this setting: last day of the experiment (day 10).

T1 sequence (P00441 whole entry): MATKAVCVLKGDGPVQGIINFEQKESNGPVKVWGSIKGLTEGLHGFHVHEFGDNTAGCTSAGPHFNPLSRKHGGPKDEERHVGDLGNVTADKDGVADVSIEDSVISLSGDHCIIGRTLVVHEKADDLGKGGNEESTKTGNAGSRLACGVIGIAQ

Turning to `CN(C)c1ccnc(CN2CCC[C@H]2[C@@H]2CCCN2Cc2cc(N(C)C)ccn2)c1` [Compound 7], in test [1], the “Excretion variation ACETATE, L. donovani” value is above 50%; the “Excretion variation L-ALANINE, L. donovani” value is given as 64%; the “Excretion variation SUCCINATE, L. donovani” value is on record as above 50%. This compound returned an IC50 in test [2] of 11.7 ± 0.8 µM. Besides, the IC50 in test [3] came to 8.5 ± 0.3 µM. The same compound registered an IC50 against human CuZn-SOD above 500 µM. Also, in test [4] (10-day infectivity assay), the “day at which the decline in the infection rate appeared, L. donovani” value came to 2 days. Further, in test [4] (setting [6]), the “percentage of decrease in infection rate in comparison to the control, L. donovani” value is listed as 88% and the “percentage of decrease in number of amastigotes per macrophage cell in comparison to the control, L. donovani” value turned out to be 74%. For the same compound, in test [5], the IC50 was 8.1 ± 3.9 µM.
